Measured values taken from ChEMBL document CHEMBL1139972, “Dihydro-[1H]-quinolin-2-ones as retinoid X receptor (RXR) agonists for potential treatment of dyslipidemia” (Bioorg Med Chem Lett, 2007).

Legend:
[1] = biological target: T1, Retinoic acid receptor RXR-alpha (Homo sapiens, UniProt P19793); assay: Activity at RXRalpha by GAL4DNA cotransfection assay
T1 sequence (P19793 whole entry): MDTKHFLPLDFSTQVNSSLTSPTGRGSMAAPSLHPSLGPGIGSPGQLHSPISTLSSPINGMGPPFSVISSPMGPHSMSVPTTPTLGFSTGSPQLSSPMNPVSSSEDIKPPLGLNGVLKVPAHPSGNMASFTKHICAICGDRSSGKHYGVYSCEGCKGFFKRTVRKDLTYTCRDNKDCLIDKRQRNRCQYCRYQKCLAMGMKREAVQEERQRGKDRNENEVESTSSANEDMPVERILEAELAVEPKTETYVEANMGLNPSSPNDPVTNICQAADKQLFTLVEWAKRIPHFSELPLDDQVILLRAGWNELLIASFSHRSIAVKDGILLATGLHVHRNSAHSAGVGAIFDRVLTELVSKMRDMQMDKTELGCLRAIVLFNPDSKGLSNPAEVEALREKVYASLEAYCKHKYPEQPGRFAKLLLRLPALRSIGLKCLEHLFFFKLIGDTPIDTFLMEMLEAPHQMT

[2] = biological target: T2, Retinoic acid receptor RXR-alpha (Homo sapiens) (UniProt P19793); assay: Activity at RXRalpha by GAL4DNA cotransfection assay relative to 5-((3-(1-ethyl-4,4,6-trimethyl-2-oxo-1,2,3,4-tetrahydroquinolin-7-yl)-4-(trifluoromethoxy)phenyl)methylene)thiazolidine-2,4-dione; design: concentration or dose not given beside the values
T2 sequence (whole entry): T1 sequence (P19793 whole entry)

[3] = Activity at RXR-LXR heterodimer assessed as induction of ABCA1 mRNA; design: species or system Homo sapiens
Homo sapiens = species on record: Homo sapiens; assay: Activation of RXR-LXR heterodimer assessed as induction of ABCA1 mRNA relative to 5-((3-(1-ethyl-4,4,6-trimethyl-2-oxo-1,2,3,4-tetrahydroquinolin-7-yl)-4-(trifluoromethoxy)phenyl)methylene)thiazolidine-2,4-dione; design: concentration or dose not given beside the values
[4] = Activity at RXR-PPARgamma in human preadipocytes assessed as induction of adipocytes fatty acid binding protein; type: cell-based

Row | EC50 [1] [nM] | Activity [2] [%] | EC50 [3] [nM] | Activity (Homo sapiens) [%] | EC50 [4] [nM] | SMILES
1 | 361 | 60 | > 3000 | – | – | COc1ccc(CCC(=O)O)cc1-c1cc2c(cc1C)C(C)(C)CC(=O)N2C(C)C
2 | 116 | 87 | > 3000 | – | – | CCN1C(=O)CC(C)(C)c2cc(C)c(-c3cc(C4CC4C(=O)O)ccc3OCC(F)(F)F)cc21 (racemic)
3 | 208 | 50 | 1520 | – | – | COc1ccc(C2CC2C(=O)O)cc1-c1cc2c(cc1C)C(C)(C)CC(=O)N2C(C)C (racemic)
4 | 19.2 | 88 | 17.4 | – | – | CCN1C(=O)CC(C)(C)c2cc(C)c(-c3cc(C4CC4C(=O)O)ccc3OC(F)(F)F)cc21 (racemic)
5 | – | – | > 3000 | – | – | CCN1C(=O)CC(C)(C)c2cc(C)c(-c3cc(C#CC(=O)O)ccc3OC(F)(F)F)cc21
6 | 45.9 | 91 | 53 | – | – | Cc1cc2c(cc1-c1cc(CCC(=O)O)ccc1OC(F)(F)F)N(C)C(=O)CC2(C)C
7 | 527 | 70 | > 3000 | – | – | CCN1C(=O)CC(C)(C)c2cc(C)c(-c3cc(CCCC(=O)O)ccc3OC(F)(F)F)cc21
8 | – | – | > 3000 | – | – | CCN1C(=O)CC(C)(C)c2cc(C)c(-c3cc(OCC(=O)O)ccc3OC(F)(F)F)cc21
9 | 144 | 108 | > 3000 | – | – | Cc1cc2c(cc1-c1cc(C3CC3C(=O)O)ccc1OCC(F)(F)F)N(C)C(=O)CC2(C)C (racemic)
10 | 39.1 | 97 | 886 | 75 | – | CCN1C(=O)CC(C)(C)c2cc(C)c(-c3cc(/C=C\C(=O)O)ccc3OC(F)(F)F)cc21
11 | – | 80 | 1 | 59 | – | Cc1cc2c(cc1-c1cc(CCC(=O)O)ccc1OC(F)(F)F)N(C(C)C)C(=O)CC2(C)C
12 | > 10000 | – | – | – | – | CCN1C(=O)CC(C)(C)c2cc(C)c(-c3cc(/C(C)=C/C(=O)O)ccc3OC(F)(F)F)cc21
13 | 10 | 70 | > 3000 | – | 266 | Cc1cc2c(cc1-c1cc([C@@H]3C[C@H]3C(=O)O)ccc1OC(F)(F)F)N(C(C)C)C(=O)CC2(C)C
14 | 5 | 85 | > 3000 | – | – | Cc1cc2c(cc1-c1cc(C3CC3C(=O)O)ccc1OC(F)(F)F)N(C(C)C)C(=O)CC2(C)C (racemic)
